Test results reported in patent publication US11932658B2 (BRISTOL-MYERS SQUIBB COMPANY, priority 2016, dated 2024).

Molecular target: T1, PAR4 (Homo sapiens, UniProt Q96RI0)
T1 construct: expressed in transfected cells; host or cells: HEK293 PAR4 Clone 1.2A (BMS Arctic ID 383940)
T1 sequence (Q96RI0 18-385): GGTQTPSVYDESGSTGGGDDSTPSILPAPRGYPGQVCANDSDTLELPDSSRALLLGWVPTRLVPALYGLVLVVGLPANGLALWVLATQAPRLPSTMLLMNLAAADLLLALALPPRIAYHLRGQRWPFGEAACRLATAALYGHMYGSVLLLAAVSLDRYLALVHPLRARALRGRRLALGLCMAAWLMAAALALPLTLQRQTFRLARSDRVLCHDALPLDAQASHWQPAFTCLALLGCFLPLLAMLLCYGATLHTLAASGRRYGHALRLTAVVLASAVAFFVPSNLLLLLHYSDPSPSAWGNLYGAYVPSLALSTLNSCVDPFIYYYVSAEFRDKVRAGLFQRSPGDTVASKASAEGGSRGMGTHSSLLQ
Test: PAR4 FLIPR assay (antagonism of agonist peptide-induced calcium mobilization)
Format: cell-based
Excerpt: The FLIPR assay is an exemplary in vitro assay for measuring the activity of the PAR4 antagonists of the present invention. In this assay, intracellular calcium mobilization is induced in PAR4 expressing cells by a PAR4 agonist and calcium mobilization is monitored.
HEK293 cells stably expressing PAR4 were generated by a standard method of transfection of human PAR4 (F2R23) cDNA expression vector and selected based on PAR4 protein expression or mRNA expression. […] These cells also express endogenous PAR1 and can elicit calcium signal upon stimulation with PAR1 agonist peptide. Therefore, the same cells were also used to determine selectivity against PAR1 and agonist activity for both receptors. Cells from HEK293 PAR4 Clone 1.2A (BMS Arctic ID 383940) were propagated and used for calcium mobilization studies.
FLIPR-based calcium mobilization assay in HEK293 cells was used to measure PAR4 antagonism, agonism, and selectivity against PAR1. The activity of the PAR4 antagonists of the present invention were tested in PAR4 expressing cells by monitoring H-Ala-Phe(4-F)-Pro-Gly-Trp-Leu-Val-Lys-Asn-Gy-NH2-induced intracellular calcium mobilization. Counter screens for agonist activity and PAR1 antagonist activity were also performed. Briefly, PAR1/PAR4-expressing HEK293 cells were grown in DMEM (Life Technology, Grand Island, NY) containing 10% heat-inactivated FBS, 1% Penicillin-Streptomycin, 10 μg/mL blasticidin, and 100 μg/mL Zeocin at 37° C. with 5% CO2. Cells were plated overnight prior to the experiment in a black 384-well Purecoat Amine clear bottom plate (Becton Dickinson Biosciences, San Jose, CA) at 10,000 cells/well in 30 μL growth medium and incubated in a humidified chamber at 37° C. with 5% CO2 overnight. Prior to compound addition, the cell medium was replaced with 40 μL of 1× calcium and magnesium-containing Hank's Balanced Saline Solution (HBSS) (with 20 mM HEPES) and 1:1000 diluted fluorescent calcium indicator (Codex Biosolutions, Gaithersburg, MD). After a 30 minute incubation period at 37° C. and a further 30 minute incubation and equilibration period at room temperature, 20 μL test compound (diluted in 1×HBSS buffer) was added at various concentrations at 0.17% dimethyl sulfoxide (DMSO) final concentration. Changes in fluorescence intensity were measured using a Functional Drug Screening System (FDSS, Hamamatsu, Japan) to determine agonist activities. The cells were then incubated for 30 minutes at room temperature followed by addition of 20 μL of agonist peptide for antagonist activity measurement. […] Compound potency was derived from 11-point concentration-response curves.

IC50 | SMILES
2.2 nM | COc1cnc2c(-c3nc4cc(F)c5c(c4s3)C[C@H](COC(=O)Nc3cccnc3)O5)cc(Cl)cc2c1 [Example 283, (R)-(2-(6-chloro-3-methoxyquinolin-8-yl)-5-fluoro-7,8-dihydrobenzofuro[5,4-d]thiazol-7-yl)methyl pyridin-3-ylcarbamate]
18 nM | COc1cnc2c(-c3nc4c(Cl)cc5c(c4s3)OC[C@H](COC(=O)Nc3ccc4scnc4c3)O5)cc(C)cc2n1 [Example 39, (R)-(4-chloro-2-(2-methoxy-7-methylquinoxalin-5-yl)-7,8-dihydro-[1,4]dioxino[2′,3′:3,4]benzo[1,2-d]thiazol-7-yl)methyl benzo[d]thiazol-5-ylcarbamate]
0.8 nM | COc1ccc(NC(=O)OC[C@H]2COc3c(cc(C)c4nc(-c5cc(C)cc6nc(OC)cnc56)sc34)O2)cn1 (single isomer, unassigned) [Example 4]
2.7 nM | COc1cnc2c(-c3nc4cc(F)c5c(c4s3)C[C@H](COC(=O)Nc3cnc(C)nc3)O5)cc(C)cc2c1 [Example 269, (R)-(5-fluoro-2-(3-methoxy-6-methylquinolin-8-yl)-7,8-dihydrobenzofuro[5,4-d]thiazol-7-yl)methyl (2-methylpyrimidin-5-yl)carbamate]
8.3 nM | COc1cnc2c(-c3nc4c(C)cc5c(c4s3)OC[C@H](COC(=O)Nc3cnc(Cl)nc3)O5)cc(C)cc2n1 [Example 59, (R)-(2-(2-methoxy-7-methylquinoxalin-5-yl)-4-methyl-7,8-dihydro-[1,4]dioxino[2′,3′:3,4]benzo[1,2-d]thiazol-7-yl)methyl (2-chloropyrimidin-5-yl)carbamate]
1.2 nM | COc1ccc(NC(=O)OC[C@H]2COc3c(ccc4oc(-c5cc(C)cc6nc(OC)cnc56)cc34)O2)cn1 [Example 13, (R)-(8-(2-methoxy-7-methylquinoxalin-5-yl)-2,3-dihydro-[1,4]dioxino[2,3-e]benzofuran-3-yl)methyl (6-methoxypyridin-3-yl)carbamate]
10 nM | Cc1cc(-c2nc3c(F)cc4c(c3s2)OCC(CNC(=O)OC(C)(C)C)O4)c2ncc(OC(F)F)nc2c1 (centres unmarked) [Example 21, tert-butyl ((2-(2-(difluoromethoxy)-7-methylquinoxalin-5-yl)-4-fluoro-7,8-dihydro-[1,4]dioxino[2′,3′:3,4]benzo[1,2-d]thiazol-7-yl)methyl)carbamate]
8.2 nM | COc1cnc2c(-c3nc4c(C)cc5c(c4s3)OCC(COC(=O)Nc3ccc(Oc4ccccc4)nc3)O5)cc(C)cc2n1 (centres unmarked) [Example 121, (2-(2-methoxy-7-methylquinoxalin-5-yl)-4-methyl-7,8-dihydro-[1,4]dioxino [2′,3′:3,4]benzo[1,2-d]thiazol-7-yl)methyl (6-phenoxypyridin-3-yl)carbamate]
1.1 nM | COc1cnc2c(-c3nc4c(C)cc5c(c4s3)OC[C@H](COC(=O)Nc3ccc(C)nc3)O5)cc(C#N)cc2n1 [Example 91, (R)-(2-(7-cyano-2-methoxyquinoxalin-5-yl)-4-methyl-7,8-dihydro-[1,4]dioxino[2′,3′:3,4]benzo[1,2-d]thiazol-7-yl)methyl (6-methylpyridin-3-yl)carbamate]
2.8 nM | COc1cnc2c(-c3nc4cc(F)c5c(c4s3)C[C@H](COC(=O)Nc3cnc(OC)nc3)O5)cc(C)cc2n1 [Example 177, (R)-(5-fluoro-2-(2-methoxy-7-methylquinoxalin-5-yl)-7,8-dihydrobenzofuro[5,4-d]thiazol-7-yl)methyl (2-methoxypyrimidin-5-yl)carbamate]
1.4 nM | COc1cnc2c(-c3nc4c(C)cc5c(c4s3)OCC(COC(=O)Nc3cncc(C(F)(F)F)c3)O5)cc(C)cc2n1 (centres unmarked) [Example 135]
5.7 nM | COc1cnc2c(-c3nc4c(Cl)cc5c(c4s3)CC(COC(=O)Nc3cccnc3)O5)cc(C)cc2n1 (centres unmarked) [Example 18, (4-chloro-2-(2-methoxy-7-methylquinoxalin-5-yl)-7,8-dihydrobenzofuro[5,4-d]thiazol-7-yl)methyl pyridin-3-ylcarbamate]
140 nM | COc1cnc2c(-c3nc4c(C)cc5c(c4s3)OC[C@H](COC(=O)Nc3ccc4ncsc4c3)O5)cc(C)cc2n1 [Example 50, (R)-(2-(2-methoxy-7-methylquinoxalin-5-yl)-4-methyl-7,8-dihydro-[1,4]dioxino[2′,3′:3,4]benzo[1,2-d]thiazol-7-yl)methyl benzo[d]thiazol-6-ylcarbamate]
1.8 nM | COc1cnc2c(-c3nc4cc(F)c5c(c4s3)C[C@](C)(COC(=O)Nc3cccc(C#N)c3)O5)cc(C)cc2n1 [Example 184, (R)-(5-fluoro-2-(2-methoxy-7-methylquinoxalin-5-yl)-7-methyl-7,8-dihydrobenzofuro[5,4-d]thiazol-7-yl)methyl (3-cyanophenyl)carbamate]
0.7 nM | COc1cnc2c(-c3nc4cc(F)c5c(c4s3)C[C@@H](CNC(=O)OCCF)O5)cc(C)cc2n1 [Example 247, (S)-2-fluoroethyl ((5-fluoro-2-(2-methoxy-7-methylquinoxalin-5-yl)-7,8-dihydrobenzofuro[5,4-d]thiazol-7-yl)methyl)carbamate]
1.3 nM | COc1cnc2c(-c3nc4c(C)cc5c(c4s3)OC[C@H](COC(=O)Nc3ccc(C#N)nc3)O5)cc(C)cc2n1 [Example 38, (R)-(2-(2-methoxy-7-methylquinoxalin-5-yl)-4-methyl-7,8-dihydro-[1,4]dioxino[2′,3′:3,4]benzo[1,2-d]thiazol-7-yl)methyl (6-cyanopyridin-3-yl)carbamate]
8.8 nM | COc1cnc2c(-c3nc4c(Cl)cc5c(c4s3)OC[C@H](COC(=O)Nc3cnc(Cl)nc3)O5)cc(C)cc2n1 [Example 58, (R)-(4-chloro-2-(2-methoxy-7-methylquinoxalin-5-yl)-7,8-dihydro-[1,4]dioxino[2′,3′:3,4]benzo[1,2-d]thiazol-7-yl)methyl (2-chloropyrimidin-5-yl)carbamate]
55 nM | COc1cnc2c(-c3nc4c(C)cc5c(c4s3)OCC(COC(=O)Nc3ccc4ocnc4c3)O5)cc(C)cc2n1 (centres unmarked) [Example 82, (2-(2-methoxy-7-methylquinoxalin-5-yl)-4-methyl-7,8-dihydro-[1,4]dioxino[2′,3′:3,4]benzo[1,2-d]thiazol-7-yl)methyl benzo[d]oxazol-5-ylcarbamate]
1.1 nM | CCOc1cnc2c(-c3nc4cc(F)c5c(c4s3)[C@H](C)[C@@H](CO)O5)cc(C)cc2n1 [Example 259, ((7S,8S)-2-(2-ethoxy-7-methylquinoxalin-5-yl)-5-fluoro-8-methyl-7,8-dihydrobenzofuro[5,4-d]thiazol-7-yl)methanol]
25 nM | COc1cnc2c(-c3nc4c(Cl)cc5c(c4s3)OC[C@H](COC(=O)Nc3cncc(Cl)c3)O5)cc(C)cc2n1 [Example 25, (R)-(4-chloro-2-(2-methoxy-7-methylquinoxalin-5-yl)-7,8-dihydro-[1,4]dioxino[2′,3′:3,4]benzo[1,2-d]thiazol-7-yl)methyl (5-chloropyridin-3-yl)carbamate]
36 nM | COc1cnc2c(-c3nc4cc(F)c5c(c4s3)C[C@H](CO)O5)cc(Cl)cc2c1 [Example 282, (R)-(2-(6-chloro-3-methoxyquinolin-8-yl)-5-fluoro-7,8-dihydrobenzofuro[5,4-d]thiazol-7-yl)methanol]
2.6 nM | COc1cnc2c(-c3nc4cc(F)c5c(c4s3)C[C@](C)(COC(=O)Nc3cnc(C)nc3)O5)cc(C)cc2n1 [Example 182, (R)-(5-fluoro-2-(2-methoxy-7-methylquinoxalin-5-yl)-7-methyl-7,8-dihydrobenzofuro[5,4-d]thiazol-7-yl)methyl (2-methylpyrimidin-5-yl)carbamate]
1 nM | COc1cnc2c(-c3nc4cc(F)c5c(c4s3)C[C@H](COC(=O)Nc3ccc(OCCO)nc3)O5)cc(C)cc2n1 [Example 165, (R)-(5-fluoro-2-(2-methoxy-7-methylquinoxalin-5-yl)-7,8-dihydrobenzofuro[5,4-d]thiazo 1-7-yl)methyl (6-(2-hydroxyethoxy)pyridin-3-yl)carbamate]
